These results are taken from paper PMC10388362, “Fluorescent Ligands Enable Target Engagement Studies for the Intracellular Allosteric Binding Site of the Chemokine Receptor CXCR2” (Journal of Medicinal Chemistry, 2023).

Assay [1] has as its target T1, CXCR2 (Homo sapiens, UniProt P25025).
T1 construct: Promega pNLF1-C (Nluc) #CXCR20TN00; host or cells: HEK293T, transient transfection (PEI)
T1 sequence (P25025 1-360): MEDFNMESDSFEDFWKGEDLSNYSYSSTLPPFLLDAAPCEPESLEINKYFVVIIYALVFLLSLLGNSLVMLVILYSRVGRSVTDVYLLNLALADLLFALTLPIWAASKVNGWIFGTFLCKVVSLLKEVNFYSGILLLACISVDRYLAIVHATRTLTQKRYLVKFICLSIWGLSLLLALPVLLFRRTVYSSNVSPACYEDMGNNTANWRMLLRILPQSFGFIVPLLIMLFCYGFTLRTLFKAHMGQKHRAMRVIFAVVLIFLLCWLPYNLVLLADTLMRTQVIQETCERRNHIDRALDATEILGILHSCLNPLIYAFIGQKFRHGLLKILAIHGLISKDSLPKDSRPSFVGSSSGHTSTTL
Description: Membrane-based NanoBRET competition assay with 9a. The assay is classed as binding. The settings on record: competition with 9a (50 nM), CXCR2_Nluc membranes. As for the experimental part: Then, 20 μL of the membrane preparation (diluted in assay buffer, 2 μg total protein/well) was added and the plates were incubated for 90 min at 37 °C. Subsequently, 5 μL of a furimazine solution (final assay dilution: 1:5000 in the assay buffer) was added to each well (final assay volume: 35 μL). […] To determine the inhibition constants (Ki) of the nonlabeled ligands, data were analyzed using the one-site-fit Ki equation in PRISM9.5 (GraphPad).
On the technique in general: Bioluminescence resonance energy transfer reports proximity on the nanometre scale.

Assay [2] deals with T1, CXCR2. Kind of assay: Membrane-based NanoBRET competition kinetic assay with 9a. The conditions noted are these: kinetic competitive binding with 9a (50 nM), CXCR2_Nluc membranes; read-out: residence time tr. As for the experimental part:
2.5 μL of a solution of the fluorescent ligand (9a) diluted in the assay buffer (final assay concentration: 50 nM) and 2.5 μL of a solution of the competing nonlabeled ligands (final assay concentrations: […]) or 3 for determining nonspecific binding (final assay concentration: 25 μM) in the assay buffer were transferred to a 384-well plate. […] Thereafter, 20 μL of the membrane preparation (2 μg total protein/well) was added and BRET ratios were measured with a CLARIOstar microplate reader using 620/10 and 475/30 nm emission filters over time. Specific BRET ratios were calculated as a difference of total and nonspecific binding. The obtained data were analyzed using the kinetics of the competitive binding algorithm in PRISM9.5 (GraphPad) to determine competition binding kinetics.

For assay [3], the target named is T1, CXCR2. Kind of assay: Live cell NanoBRET competition binding with 9a. The settings on record: competition with 9a (50 nM), live HEK293T cells expressing CXCR2_Nluc. How it is done: HEK293T cells were transfected with the plasmid (5.5 μg) for CXCR2_Nluc using polyethylenimine (PEI) as transfection reagent (PEI/DNA ratio 3:1). After 24 h at 37 °C and 5% CO2, the cells were detached with DMEM and transferred to a white F-bottom 384-well plate (10,000 cells/well), which was coated with 5 μL/well poly-D-lysine (0.1 mg/mL, dissolved in water), and incubated for further 24 h at 37 °C and 5% CO2. Subsequently, the cells were washed with phosphate-buffered saline (Gibco DPBS, with CaCl2 and MgCl2). The assay medium (Gibco DMEM/F12, 15 mM HEPES, no phenol red supplemented with 5% FBS) was added and the cells were incubated at 37 °C for 30 min. […] To determine nonspecific binding, 5 μL of a solution of 3 dissolved in the assay medium (final assay concentration: 10 μM) were added.
Total, nonspecific and specific binding, which was calculated as a difference of total and nonspecific binding, were analyzed using the algorithms for one-site saturation binding in PRISM9.5 (GraphPad). To determine the inhibition constants (Ki) of the potential competitors, data were normalized to total and nonspecific binding and analyzed using the one-site-fit Ki equation in PRISM9.5 (GraphPad).

Assay [4] concerns the target T1, CXCR2. Description: Fluorescence microscopy, displacement of 9a in HEK293 cells stably expressing CXCR2. Type of assay: cell-based. The conditions noted are these: 9a 500 nM. As for the experimental part: For live cell microscopy, HEK293 cells stably expressing CXCR2 were seeded onto poly-D-lysine (PDL)-coated 8-well μ-slides (Ibidi) at a density of 1.5 × 10^5 cells per well and cultured overnight at 37 °C and 5% CO2. […] Afterward, the fluorescent CXCR2 ligand ((9a) final concentration 500 nM) was added for 60 min at 37 °C, and the cells were washed once with PBS before imaging. For immunostaining, the cells were first fixed with 4% paraformaldehyde solution, washed with PBS, and then blocked for 1 h with 10% goat serum and 1% fatty acid-free bovine serum albumin (BSA) in PBS at 37 °C. As primary antibody, anti-CXCR2 mouse IgG (R&D Systems, catalog # 48311, 1:100 in blocking solution) was added, and the cells were incubated for 1 h at 37 °C. After three washes with PBS, goat anti-mouse IgG (H+L) conjugated to FITC (Sigma-Aldrich, catalog # AP124F, 1:500 in blocking solution) was added for 1 h at 37 °C. The cells were again washed three times with PBS and counterstained with 4′,6-diamidin-2-phenylindole (DAPI) solution (0.1 μg/mL) for 15 min in the dark at room temperature, followed by three washes with PBS. […] Afterward, the fluorescent CXCR2 ligand ((9a) final concentration 500 nM) was added for 30 min at 37 °C and the cells were imaged. Microscopy was carried out on an AxioObserver.Z1 microscope (Carl Zeiss, Jena, Germany) equipped with an ApoTome imaging system and a Heating unit XL S using a Plan-Apochromat ×63/1.40 Oil objective (filter set 43 (red), 38 (green), 49 (blue)). Image processing and line scan analysis were performed with Zen blue Imaging software. The fluorescence intensity values were normalized to vehicle control.

As for `Cc1ccc([C@H](Nc2c(Nc3cccc(C(=O)N(C)C)c3O)c(=O)c2=O)C(C)(C)C)o1` [compound 3], the Ki is 0.09 nM at CXCR2 [1] (read-out: Ki), 0.0794 nM at CXCR2 [1] (read-out: pKi (converted)), 0.011 nM on CXCR2 [3] (read-out: Ki) and 0.00933 nM on CXCR2 [3] (read-out: pKi (converted)). The residence time on CXCR2 [2] was 474 ± 59 min. Besides, the “effect of preincubation on membrane-associated 9a fluorescence” value at CXCR2 [4] (fixed HEK293 cells stably expressing CXCR2, competitor 10 μM) is given as “virtually blunted all membrane-associated probe fluorescence”. Also, at CXCR2 [4] (live cell imaging, HEK293 cells stably expressing CXCR2, competitor 10 μM), the “effect of preincubation on membrane-based 9a fluorescence” value is recorded as “very strong reduction in membrane-based fluorescence”.
